Test results as given in patent publication US20050112573A1, “Method of detecting toxic substance” (priority 2001, published 2005).

Test system: yeast genes (level of expressed mRNA)
Assay: DNA chip analysis of expressed mRNA of yeast genes after 2 h culture with a toxic chemical substance
Assay type: cell-based, Saccharomyces cerevisiae S288C
Details: for The level of expressed mRNA in the presence of chemical substance/ (ratio to absence of chemical substance): stress protein genes, DNA chip; for The level of expressed mRNA in the presence of chemical substance/ in its absence, gene YPR184W: yeast gene YPR184W
Procedure: Yeast (Saccharomyces cerevtisiae S288C (α SUC2mal mel gap2 CUP1)) were cultured at 25° C. on YPD medium (yeast extract 1%, polypepton 2%, glucose 2%). One of toxic chemical substances was added to the cell at logarithmic growth phase, and the cell was further cultured for two hours. Cell was cultured without any chemical substance in the same condition, and was used as control. Concentrations of the chemical substances were defined to inhibit the growth of the yeast but not lead to death.
After the completion of cultivation, the culture was centrifuged to collect the cells. To the cells, sodium acetate buffer (50 mM sodium acetate, 10 mM EDTA, 1% SDS) was added, and the mixture was shaken at 65° C. for five minutes, followed by returning to room temperature, and obtaining the supernatant, which procedure was repeated two times. To the supernatant, ½ amount of a solution of phenol/chloroform was added, and the mixture was centrifuged to give a supernatant, which was added with an equal amount of chloroform, and the mixture was centrifuged to give a supernatant. To the supernatant, an equal amount of isopropanol containing 0.3 M sodium acetate was added, and the mixture was allowed to stand at room temperature for 30 minutes, after which the mixture was centrifuged to give a sediment of the whole RNAs. Seventy % ethanol was added to the sediment, and the mixture was again centrifuged to give a sediment, which was then dried and dissolved in water. mRNA was isolated from the whole RNAs as followings. In view of the fact that a poly A chain is attached to the 3′ terminus of mRNA, a polynucleotide having a poly T structure which was immobilized on the surface of latex beads was used to trap the mRNA, and then the mRNA was washed and eluted with spine column (Oligotex-dT30<Super>mRNA Purification Kit, Takara). Reverse transcription of the mRNA was conducted with a reverse transcriptase (Super Script II Reverse Transcriptase; catalogue No. 18064-014, GibcoBRL) using fluorescence-labeled nucleotides to give cDNAs that were introduced with Cy3-dUTP or Cy5-dUTP during the reverse transcription.
The labeled cDNAs were dissolved in TE buffer (10 mM Tris-HCl/1 mM EDTA, pH8.0), and the solution was dropped on the DNA chip containing the whole genes of yeast (DNA Chip Research Inc. Japan) so that the cDNAs were hybridized on the DNA chip at 65° C. for over 12 hours. The fluoresces intensity of the DNA chip was read with a scanner, and the ratio relative to the fluorescence intensity resulting from the absence of chemical substance was estimated as the following, which is shown in Tables 1 to 9: [formula]
In the Tables, “Intensity” indicated in the rightmost column is a value of the level of expressed mRNA of each gene in control cells as divided by the average level of the expressions of the whole genes.

`CCCCC[C@H](O)CC(=O)CCc1ccc(O)c(OC)c1` [(13), gingerol] was tested. Which “The level of expressed mRNA in the presence of chemical substance/The level of expressed mRNA in the absence of chemical substance” value (yeast gene YNL006W) did it give?
The value was 2.3.

What about the “The level of expressed mRNA in the presence of chemical substance/The level of expressed mRNA in the absence of chemical substance” value (yeast gene YNL007C) of the same compound?
Its value is 2.1.

What about the “The level of expressed mRNA in the presence of chemical substance/ (in its absence), gene YNL025C” value (yeast gene YNL025C, ratio of DNA chip fluorescence intensity to that without chemical substance) of the same compound?
Its value is 1.3.

And the “The level of expressed mRNA in the presence of chemical substance/ (ratio to absence of chemical substance)” value (yeast gene YNL064C)?
Its value is 1.1.

What about the “The level of expressed mRNA in the presence of chemical substance/ (ratio to absence), gene YNL073W” value (yeast gene YNL073W, mitochondria-located protein genes, 2 h culture with chemical) of the same compound?
Its value is 1.2.

What about the “The level of expressed mRNA in the presence of chemical substance/The level of expressed mRNA in the absence of chemical substance” value (yeast gene YNL093W) of the same compound?
Its value is 2.2.

What about the “The level of expressed mRNA in the presence of chemical substance/ (in its absence), gene YNL192W” value (yeast gene YNL192W, ratio of DNA chip fluorescence intensity to that without chemical substance) of the same compound?
The value was 2.7.

What about the “The level of expressed mRNA in the presence of chemical substance/The level of expressed mRNA in the absence of chemical substance” value (yeast gene YNL333W) of the same compound?
Its value is 2.2.

And the “The level of expressed mRNA in the presence of chemical substance/The level of expressed mRNA in the absence of chemical substance” value (yeast gene YNR010W)?
Its value is 2.8.

And the “The level of expressed mRNA in the presence of chemical substance/The level of expressed mRNA in the absence of chemical substance” value (yeast gene YNR069C)?
The value was 3.4.

And the “The level of expressed mRNA in the presence of chemical substance/ (in its absence), gene YNR072W” value (yeast gene YNR072W, ratio of DNA chip fluorescence intensity to that without chemical substance)?
The value was 1.5.

And the “The level of expressed mRNA in the presence of chemical substance/ (ratio to absence of chemical substance)” value (yeast gene YNR076W)?
The value was 0.9.

And the “The level of expressed mRNA in the presence of chemical substance/The level of expressed mRNA in the absence of chemical substance” value (yeast gene YOL013C)?
Its value is 1.8.

What about the “The level of expressed mRNA in the presence of chemical substance/ (ratio to absence), gene YOL096C” value (yeast gene YOL096C, mitochondria-located protein genes, 2 h culture with chemical) of the same compound?
Its value is 1.4.

What about the “The level of expressed mRNA in the presence of chemical substance/ (in its absence), gene YOL096C” value (yeast gene YOL096C, ratio of DNA chip fluorescence intensity to that without chemical substance) of the same compound?
The value was 1.4.

And the “The level of expressed mRNA in the presence of chemical substance/ (in its absence), gene YOL108C” value (yeast gene YOL108C, ratio of DNA chip fluorescence intensity to that without chemical substance)?
Its value is 1.3.

What about the “The level of expressed mRNA in the presence of chemical substance/ (in its absence), gene YOL116W” value (yeast gene YOL116W, ratio of DNA chip fluorescence intensity to that without chemical substance) of the same compound?
The value was 0.8.

And the “The level of expressed mRNA in the presence of chemical substance/ (ratio to absence of chemical substance)” value (yeast gene YOL161C)?
Its value is 1.2.

And the “The level of expressed mRNA in the presence of chemical substance/The level of expressed mRNA in the absence of chemical substance” value (yeast gene YOL164W)?
Its value is 3.4.

What about the “The level of expressed mRNA in the presence of chemical substance/ (ratio to absence of chemical substance)” value (yeast gene YOR008C) of the same compound?
The value was 0.9.

And the “The level of expressed mRNA in the presence of chemical substance/ (ratio to absence of chemical substance)” value (yeast gene YOR009W)?
Its value is 0.4.

What about the “The level of expressed mRNA in the presence of chemical substance/ (ratio to absence of chemical substance)” value (yeast gene YOR010C) of the same compound?
The value was 0.5.

What about the “The level of expressed mRNA in the presence of chemical substance/The level of expressed mRNA in the absence of chemical substance” value (yeast gene YOR036W) of the same compound?
Its value is 2.1.

And the “The level of expressed mRNA in the presence of chemical substance/ (in its absence), gene YOR103C” value (yeast gene YOR103C, ratio of DNA chip fluorescence intensity to that without chemical substance)?
Its value is 0.8.

What about the “The level of expressed mRNA in the presence of chemical substance/The level of expressed mRNA in the absence of chemical substance” value (yeast gene YOR117W) of the same compound?
The value was 2.3.

And the “The level of expressed mRNA in the presence of chemical substance/The level of expressed mRNA in the absence of chemical substance” value (yeast gene YOR124C)?
Its value is 2.1.

And the “The level of expressed mRNA in the presence of chemical substance/The level of expressed mRNA in the absence of chemical substance” value (yeast gene YOR132W)?
Its value is 2.5.

What about the “The level of expressed mRNA in the presence of chemical substance/The level of expressed mRNA in the absence of chemical substance” value (yeast gene YOR157C) of the same compound?
Its value is 2.4.

And the “The level of expressed mRNA in the presence of chemical substance/ (in its absence), gene YOR180C” value (yeast gene YOR180C, ratio of DNA chip fluorescence intensity to that without chemical substance)?
Its value is 0.9.

And the “The level of expressed mRNA in the presence of chemical substance/The level of expressed mRNA in the absence of chemical substance” value (yeast gene YOR181W)?
The value was 1.2.

What about the “The level of expressed mRNA in the presence of chemical substance/The level of expressed mRNA in the absence of chemical substance” value (yeast gene YOR185C) of the same compound?
Its value is 2.2.

And the “The level of expressed mRNA in the presence of chemical substance/The level of expressed mRNA in the absence of chemical substance” value (yeast gene YOR198C)?
The value was 1.8.

What about the “The level of expressed mRNA in the presence of chemical substance/ (in its absence), gene YOR251C” value (yeast gene YOR251C, ratio of DNA chip fluorescence intensity to that without chemical substance) of the same compound?
Its value is 1.0.

What about the “The level of expressed mRNA in the presence of chemical substance/The level of expressed mRNA in the absence of chemical substance” value (yeast gene YOR259C) of the same compound?
Its value is 1.8.

And the “The level of expressed mRNA in the presence of chemical substance/The level of expressed mRNA in the absence of chemical substance” value (yeast gene YOR261C)?
The value was 2.5.

And the “The level of expressed mRNA in the presence of chemical substance/The level of expressed mRNA in the absence of chemical substance” value (yeast gene YOR288C)?
The value was 2.4.

What about the “The level of expressed mRNA in the presence of chemical substance/ (ratio to absence), gene YOR316C” value (yeast gene YOR316C, mitochondria-located protein genes, 2 h culture with chemical) of the same compound?
The value was 1.6.

What about the “The level of expressed mRNA in the presence of chemical substance/ (in its absence), gene YOR348C” value (yeast gene YOR348C, ratio of DNA chip fluorescence intensity to that without chemical substance) of the same compound?
The value was 1.1.

What about the “The level of expressed mRNA in the presence of chemical substance/The level of expressed mRNA in the absence of chemical substance” value (yeast gene YOR355W) of the same compound?
Its value is 1.1.

And the “The level of expressed mRNA in the presence of chemical substance/ (in its absence), gene YOR363C” value (yeast gene YOR363C, ratio of DNA chip fluorescence intensity to that without chemical substance)?
Its value is 1.3.

And the “The level of expressed mRNA in the presence of chemical substance/The level of expressed mRNA in the absence of chemical substance” value (yeast gene YOR383C)?
The value was 1.2.

What about the “The level of expressed mRNA in the presence of chemical substance/ (ratio to absence), gene YPL040C” value (yeast gene YPL040C, mitochondria-located protein genes, 2 h culture with chemical) of the same compound?
Its value is 1.0.

And the “The level of expressed mRNA in the presence of chemical substance/ (ratio to absence of chemical substance)” value (yeast gene YPL059W)?
Its value is 0.7.

What about the “The level of expressed mRNA in the presence of chemical substance/The level of expressed mRNA in the absence of chemical substance” value (yeast gene YPL089C) of the same compound?
The value was 1.3.

What about the “The level of expressed mRNA in the presence of chemical substance/The level of expressed mRNA in the absence of chemical substance” value (yeast gene YPL109C) of the same compound?
Its value is 1.8.

What about the “The level of expressed mRNA in the presence of chemical substance/ (ratio to absence), gene YPL134C” value (yeast gene YPL134C, mitochondria-located protein genes, 2 h culture with chemical) of the same compound?
Its value is 1.0.

What about the “The level of expressed mRNA in the presence of chemical substance/ (ratio to absence of chemical substance)” value (yeast gene YPL140C) of the same compound?
Its value is 0.9.

And the “The level of expressed mRNA in the presence of chemical substance/ (in its absence), gene YPL148C” value (yeast gene YPL148C, ratio of DNA chip fluorescence intensity to that without chemical substance)?
Its value is 0.6.

And the “The level of expressed mRNA in the presence of chemical substance/The level of expressed mRNA in the absence of chemical substance” value (yeast gene YPL149W)?
Its value is 2.3.

And the “The level of expressed mRNA in the presence of chemical substance/The level of expressed mRNA in the absence of chemical substance” value (yeast gene YPL154C)?
The value was 3.1.

And the “The level of expressed mRNA in the presence of chemical substance/ (ratio to absence of chemical substance)” value (yeast gene YPL194W)?
Its value is 1.4.

And the “The level of expressed mRNA in the presence of chemical substance/ (ratio to absence of chemical substance)” value (yeast gene YPR005C)?
The value was 0.7.

And the “The level of expressed mRNA in the presence of chemical substance/The level of expressed mRNA in the absence of chemical substance” value (yeast gene YPR103W)?
The value was 2.8.

And the “The level of expressed mRNA in the presence of chemical substance/The level of expressed mRNA in the absence of chemical substance” value (yeast gene YPR108W)?
Its value is 2.6.

And the “The level of expressed mRNA in the presence of chemical substance/ (in its absence), gene YPR165W” value (yeast gene YPR165W, ratio of DNA chip fluorescence intensity to that without chemical substance)?
The value was 1.0.

And the “The level of expressed mRNA in the presence of chemical substance/ in its absence, gene YPR184W” value (energy system protein genes, 2 h culture with the chemical, ratio to control without chemical)?
Its value is 2.5.

And the “The level of expressed mRNA in the presence of chemical substance/ in its absence, gene YPR184W” value (ratio of DNA chip fluorescence intensity to that without chemical substance)?
The value was 2.5.
